The source of these data is ChEMBL document CHEMBL1201862, “PubChem BioAssay data set” (2004).

Calls of active or inactive are those of the source.

As a reminder, the AC50 is the midpoint of the concentration-response curve, whichever way the signal moves. The term IC50 denotes the concentration at which inhibition is half-maximal. The EC50 is the concentration giving half of the maximal effect.

Assay [1] in a line: P. falciparum Dd2 growth inhibitors, dose response, SYBR Green, cherry-picked samples (AID 1159567). The class given is functional, cell-based.
Assay [2] is described as follows: general mammalian cell viability loss – activator set, cherry-pick, cytotoxicity control for miR-122 modulator project, dose response (AID 720690).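 Also: HEK293T human cells scored for general mammalian cytotoxicity.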 The class given is functional, cell-based.
Assay [3] can be described thus: toxicity to human hepatoma HepG2 cells – cell-based, cherry-picked samples, cytotoxicity control, dose response (AID 1159577). The assay is classed as functional.
Assay [4] is described as follows: HIV-1 AD8 envelope cell-cell fusion blockers – cherry-pick, dose response (AID 652062).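 Also: luciferase signal from cell-cell fusion driven by HIV-1 clade B AD8 Env; potency is for inhibitors of fusion seen as a drop in luminescence.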 The class given is functional, cell-based.
The nature of assay [5]: blockers of HIV-1 ZM109 envelope-driven cell-cell fusion – HeLa effector, CEM target cells, luciferase, cherry-pick, dose response (AID 652058).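 Also: luciferase signal from HIV-1 Env mediated cell-cell fusion of effector and target cells.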 The assay is classed as functional, cell-based.
Assay [6] deals with T1, COUP transcription factor 2 (Homo sapiens, UniProt P24468).
T1 sequence (P24468 whole entry): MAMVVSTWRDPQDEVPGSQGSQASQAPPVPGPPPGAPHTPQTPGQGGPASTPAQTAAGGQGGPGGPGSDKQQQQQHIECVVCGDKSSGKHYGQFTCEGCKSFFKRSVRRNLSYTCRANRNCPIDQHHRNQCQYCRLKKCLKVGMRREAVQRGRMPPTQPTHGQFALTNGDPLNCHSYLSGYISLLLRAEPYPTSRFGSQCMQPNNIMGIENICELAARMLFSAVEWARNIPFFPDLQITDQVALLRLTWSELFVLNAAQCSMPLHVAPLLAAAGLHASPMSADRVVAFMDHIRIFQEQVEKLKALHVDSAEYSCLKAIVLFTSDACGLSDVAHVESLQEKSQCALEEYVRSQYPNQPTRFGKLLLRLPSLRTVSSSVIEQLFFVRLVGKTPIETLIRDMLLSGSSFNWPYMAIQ
Description: Luminescence-based cell-based high throughput dose response assay to identify inhibitors of COUP-TFII (NR2F2). The class given is functional.

Assay [7] in a line: viability loss in CEM21 cells – cell-based, CellTiter-Glo luminescence, cherry-picked, cytotoxicity control for viral fusion inhibitor project, dose response (AID 652042).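 Also: potency for signal decrease meaning cytotoxicity.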 The assay is classed as functional. In general terms: Cellular ATP, detected with luciferase, serves as a proxy for viable cell number.
The nature of assay [8]: cells. Conditions: A549.
Assay [9] deals with T2, Carboxy-terminal domain RNA polymerase II polypeptide A small phosphatase 1 (Homo sapiens, UniProt Q9GZU7).
T2 sequence (Q9GZU7 whole entry): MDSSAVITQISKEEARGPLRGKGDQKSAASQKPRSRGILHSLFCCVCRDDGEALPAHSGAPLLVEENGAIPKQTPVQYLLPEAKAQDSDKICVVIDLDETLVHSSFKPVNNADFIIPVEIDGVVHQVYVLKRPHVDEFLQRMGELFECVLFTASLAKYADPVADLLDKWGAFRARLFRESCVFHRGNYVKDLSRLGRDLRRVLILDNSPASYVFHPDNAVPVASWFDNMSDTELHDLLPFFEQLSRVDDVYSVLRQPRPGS
As to the kind of experiment: CTDSP1 inhibitors, concentration-response, biochemical, absorbance readout, ultra-high-throughput screen actives (AID 540297). The class given is functional.

Assay [10] in a line: cells. The class given is functional, cell-based.
For assay [11], the target named is T3, Nuclear receptor subfamily 0 group B member 1 (Homo sapiens, UniProt P51843).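 Also: HEK293T cells transfected with SF-1 and DAX-1 plus StAR promoter luciferase reporter.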
T3 sequence (P51843 whole entry): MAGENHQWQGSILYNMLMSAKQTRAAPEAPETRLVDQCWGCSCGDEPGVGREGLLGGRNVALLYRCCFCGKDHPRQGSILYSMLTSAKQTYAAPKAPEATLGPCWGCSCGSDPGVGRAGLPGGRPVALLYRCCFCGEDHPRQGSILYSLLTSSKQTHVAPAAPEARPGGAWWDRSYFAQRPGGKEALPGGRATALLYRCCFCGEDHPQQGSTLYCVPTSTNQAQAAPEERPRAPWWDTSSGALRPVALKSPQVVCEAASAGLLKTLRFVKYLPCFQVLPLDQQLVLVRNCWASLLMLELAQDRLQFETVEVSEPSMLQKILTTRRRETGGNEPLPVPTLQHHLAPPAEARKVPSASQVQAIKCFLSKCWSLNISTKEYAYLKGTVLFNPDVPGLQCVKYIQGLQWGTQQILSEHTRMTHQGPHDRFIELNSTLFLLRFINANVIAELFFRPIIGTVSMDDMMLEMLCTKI
The assay is classed as functional, cell-based.

Assay [12] is described as follows: Dd2 malaria parasite growth inhibition potency – SYBR Green, dry powder samples, dose response (AID 1159566).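 Also: potency for growth inhibition with lower SYBR green DNA signal.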 The assay is classed as functional, cell-based.
Assay [13] can be described thus: YAP1 overexpression rescue of CTGF inhibition – DLD1 cells, RT-qPCR, cherry-pick, mechanism study for YAP1 pathway inhibitor project, dose response (AID 1053127). The assay is classed as functional, cell-based. The note with it: DLD-1.
The nature of assay [14]: toxicity to human HepG2 hepatoma cells – cell-based, plate reader, dry powder samples, cytotoxicity control, dose response (AID 1159569).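 Also: inhibitor potency with signal falling toward the positive control level.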 The class given is functional.
Assay [15] can be described thus: growth inhibition of PfATP4-mutant resistant parasites – NITD609-resistant line, SYBR Green, dry powder, dose response (AID 1159571).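 Also: parasites synchronized at ring stage by sorbitol before testing.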 The class given is functional, cell-based.
The nature of assay [16]: growth inhibition of yeast DHODH-expressing 3D7 parasites – SYBR Green, dry powder samples, dose response (AID 1159570).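 Also: parasite growth measured after 72 hours of compound exposure.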 The class given is functional, cell-based.
Assay [17] concerns H4. Description: Luminescence Cell-Based Dose Response HTS to Identify Activators of 5'UTR Stem-Loop Driven Prion Protein mRNA Translation in H4 Neuroglioblastoma Cells. [Related pubchem assays: 1829 (Project Summary), 1814 (Primary HTS)]. Conditions: Homo sapiens. The assay is classed as functional.
For assay [18], the target named is T4, Oxysterols receptor LXR-beta (Homo sapiens, UniProt P55055).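 Also: agonist activity at LXR measured by a cell-based luminescence readout across a dose range, run as a counterscreen for daf-12 agonists; HEK293 cells with Gal4-LXR fusion and GAL4-driven luciferase reporter; potency for activation of Gal4-LXR reporter so compounds are agonists.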
T4 sequence (P55055 whole entry): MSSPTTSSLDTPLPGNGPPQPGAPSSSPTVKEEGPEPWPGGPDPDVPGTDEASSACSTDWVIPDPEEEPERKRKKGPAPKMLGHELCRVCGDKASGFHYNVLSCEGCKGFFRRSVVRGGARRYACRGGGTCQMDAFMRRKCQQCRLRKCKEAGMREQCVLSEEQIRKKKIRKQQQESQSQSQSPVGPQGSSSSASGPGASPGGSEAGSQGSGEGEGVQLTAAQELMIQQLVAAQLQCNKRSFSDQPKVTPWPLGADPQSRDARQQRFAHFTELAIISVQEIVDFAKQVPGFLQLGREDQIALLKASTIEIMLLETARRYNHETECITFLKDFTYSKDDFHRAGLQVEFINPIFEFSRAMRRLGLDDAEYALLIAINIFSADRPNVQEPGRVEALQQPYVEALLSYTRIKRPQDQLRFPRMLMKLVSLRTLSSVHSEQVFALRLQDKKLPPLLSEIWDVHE
The class given is functional, cell-based.

A short description of assay [19]: Luminescence Cell-Based Dose Response HTS to Identify Activators of Luciferase Translation or Activity in H4 […] Cells. [Related pubchem assays: 1829 (Project Summary), 1814 (Primary HTS)]. The class given is functional.
Assay [20] is described as follows: Luminescence Cell-Based Dose Confirmation HTS to Identify Activators of 5'UTR Stem-Loop Driven Alpha-Synuclein mRNA Translation in H4 Neuroglioblastoma Cells. [Related pubchem assays: 1829 (Project Summary), 1814 (Primary HTS)]. The class given is functional.

In the case of `CN(C)CC(=O)N1CCCCN2[C@@H](CO)[C@@H](c3ccc(/C=C/c4ccccc4)cc3)[C@@H]2C1`, the AC50 is 1.14 µM (active) in [1], 23.6 µM (active) in assay [2] and 8.82 µM (active) in assay [3].

Turning to `Cc1ccc(Cn2ncc3c(N4CCN(Cc5ccc(Cl)cc5)CC4)ncnc32)cc1`, the concentration at half-maximal activity (AC50) is 3.86 µM (active) in assay [4], 0.606 µM (active) in assay [5] and 52 µM (active) in assay [7]. Further, the IC50 in assay [6] is 10.6 µM (inactive).

With `COc1ccc(C2CC(c3ccccc3)=NN2c2ccc(C(N)=O)cc2)cc1` (configuration not stated), the AC50 in [8] is 39.1 µM (active).

As for `O=C(CCN1C(=O)/C(=C\C=C\c2ccccc2)SC1=S)Nc1cccc(C(=O)O)c1`, the half-maximal inhibitory concentration (IC50) in assay [9] is 4.8 µM (active); in assay [10], > 67.5 µM (inactive); in assay [11], > 67.5 µM (inactive).

With `C[C@@H]1CN([C@@H](C)CO)C(=O)c2ccccc2-c2ccccc2CO[C@H]1CN(C)C(=O)Nc1cccc(C(F)(F)F)c1`, the half-maximal activity concentration (AC50) in [12] is 1.03 µM (active); in assay [1], 1.55 µM (active); in assay [13] it was 8.76 µM (active); in assay [14] it was > 100 µM (inactive); in assay [15], 2.38 µM (active); in assay [16], 0.779 µM (active).

Consider `CC1=CN2C(=N)/C(=C/c3ccco3)C(=O)N=C2S1`, for which the concentration giving a half-maximal response (EC50) in [17] is 1.63 µM (active); in [18], > 67.5 µM (inactive); in [19], 6.38 µM (active); in assay [20] it was 5.22 µM (active).

With `c1ccc(CNC2=Nc3ccccc3CS2)nc1`, the EC50 in assay [18] was > 67.5 µM (inactive).
